Reference: patent EP2084165B1, “POSITIVELY CHARGED WATER-SOLUBLE PRODRUGS OF OXICAMS AND RELATED COMPOUNDS WITH VERY HIGH SKIN PENETRATION RATE” (Techfields Biochem Co. Ltd, priority 2006, dated 2008)
Counter-ions that a name gives are not always drawn. Like-named read-outs stand apart in the source and are kept apart here.

Key:
[1] = in vivo; conditions: mouse, topical or ocular
Procedure: The donor consisted of a 20% solution of these compounds in 1 mL of isopropanol applied to a 10 cm^2 on the backs of the hairless mice. Plasma levels of drugs were determined by a specific high-performance liquid chromatography method.

[2] = Acute toxicity, LD50 orally in mice; assay type: in vivo; conditions: mouse, in vivo
Text: (§1) The acute toxicity of the prodrugs was investigated. […].

[3] = Solubility in water; conditions: for solubility: water, solubility in water
[4] = tested on: mice; assay: Acute toxicity, LD50 orally in mice; assay type: in vivo; conditions: oral, mice
Text: as §1

[5] = tested on: mice; assay: Analgesic activity: acetic acid writhing test in mice; assay type: in vivo; conditions: for No. of Writhings: 50 mg/kg transdermally 60 minutes before acetic acid solution intraperitoneally, control group 35.0; for Rate of Inhibition (%): 50 mg/kg transdermally 60 minutes before acetic acid solution, based on the control group
Procedure: The number of writhings that occurred when mice were administered an acetic acid solution intraperitoneally were counted, and the rate of inhibition based on the control group was calculated. […] The group A is the control group.

[6] = tested on: Rats; assay: Antipyretic activity: rats given sterilized E. coli suspension as pyrogen; assay type: in vivo; conditions: 25 mg/kg transdermally 2 hours after E. coli pyrogen, in °C (unit assumed)
Procedure: Antipyretic activity: Rats received a sterilized E. coli suspension as a pyrogen. […] The body temperature of the rats was taken at 90 min. intervals before and after the administration of the test compounds.

[7] = prodrug versus the drug itself (testosterone); cited from earlier work
[8] = oral, mice, read-out: LD50 orally in mice

Compound	Cmax [1]	Tmax [1]	LD50 ([2]; po)	solubility [3]	No. of Writhings [5]	Rate of Inhibition (%) [5]	body temperature of the rats, t = 0 min. [6]	body temperature of the rats, t = 90 min. [6]	body temperature of the rats, t = 180 min. [6]	body temperature of the rats, t = 270 min. [6]	other results
CN(C)CCCC(=O)OC1=C(C(=O)Nc2ccccn2)N(C)S(=O)(=O)c2ccsc21	~500 µg/mL	~50 min	500 mg/kg	> 300 mg/mL	–	–	–	–	–	–	–
CN(C)CCCC(=O)OC1=C(C(=O)Nc2ccccn2)N(C)S(=O)(=O)c2ccccc21	~500 µg/mL	~50 min	550 mg/kg	> 300 mg/mL	–	–	–	–	–	–	–
Cc1cnc(NC(=O)C2=C(OC(=O)CCCN(C)C)c3ccccc3S(=O)(=O)N2C)s1.Cl	–	–	–	–	–	–	–	–	–	–	time until peak plasma levels were reached after application of the donor systems [1]: ~50 min
CN(C)CCCC(=O)OC1=C(C(=O)Nc2ccccn2)N(C)S(=O)(=O)c2cc(Cl)sc21	~500 µg/mL	~50 min	580 mg/kg	> 300 mg/mL	–	–	–	–	–	–	–
CN(C)CCCC(=O)OC(Nc1ccccn1)=C1C(=O)c2sc(Cl)cc2S(=O)(=O)N1C	~500 µg/mL	~50 min	610 mg/kg	> 300 mg/mL	–	–	–	–	–	–	–
CN(C)CCCC(=O)OC1=C(C(=O)Nc2nccs2)N(C)S(=O)(=O)c2ccccc21	–	~50 min	670 mg/kg	–	–	–	–	–	–	–	–
4- N,N-dimethylaminobutyryloxy - 2-methyl-N-[5-Methyl-3-isoxolyl-2H-1,2-benzothiazine-3-carboxamide 1,1-dioxide] .HCl [G]	–	–	–	–	15.8	55%	37.52±0.06	36.62±0.07	36.53±0.06	36.60±0.05	peak plasma levels [1]: ~0.5 mg/mL; time until peak plasma levels were reached after application of the donor systems [1]: ~50 min; LD50 orally in mice [4]: 570 mg/kg
CN(C)CCCC(=O)OC1=C(C(=O)Nc2ccccn2)N(C)S(=O)(=O)c2ccccc21 [B, 4-N,N-dimethylaminobutyryloxy-2-methyl-N-2-pyridinyl-2H,1,2-benzothiazine-3-carb oxamide 1,1-dioxide.HCl]	–	–	–	–	15.6	55%	37.57±0.06	36.51±0.05	36.40±0.06	36.45±0.07	solubility in water [3]: 250 mg/mL
CN(C)CCCC(=O)OC1=C(C(=O)Nc2nccs2)N(C)S(=O)(=O)c2ccccc21 [C, N-(2-thiazoyl)-4-N,N-dimethylaminobutyryloxy-2-methyl-2H,1,2-benzothiazine-3-carbo xamide 1,1-dioxide.HCl]	~500 µg/mL	–	–	> 300 mg/mL	15.7	55%	37.50±0.07	36.61±0.04	36.50±0.07	36.60±0.05	solubility in water ([3]; listed as N-(2-thiazolyl)-4-N,N-dimethylaminobutyryloxy-2-methyl-2H,1,2-benzothiazine-3-ca): 250 mg/mL
CN(C)CCCC(=O)OC1=C(C(=O)Nc2ccccn2)N(C)S(=O)(=O)c2cc(Cl)sc21 [Compound D, 6-chloro-4-N,N-dimethylaminobutyryloxy-2-methyl-N-2-pyridinyl-2H-thieno[2,3-e]-1 ,2-thiazine-3-carboxamide 1,1-dioxide.HCl]	–	–	–	–	16.5	53%	37.55±0.05	36.66±0.06	36.60±0.06	36.61±0.07	solubility in water [3]: 250 mg/mL
CN(C)CCCC(=O)OC1=C(C(=O)Nc2ccccn2)N(C)S(=O)(=O)c2ccsc21 [E, 4-N,N-dimethylaminobutyryloxy-2-methyl-N-2-pyridinyl-2H-thieno[2,3-e]-1,2-thiazine-3-carboxamide 1,1-dioxide.HCl]	–	–	–	–	16.9	53%	37.54±0.06	36.61±0.06	36.58±0.08	36.55±0.05	solubility in water [3]: 250 mg/mL
CN(C)CCCC(=O)OC(Nc1ccccn1)=C1C(=O)c2sc(Cl)cc2S(=O)(=O)N1C.Cl [F, 8-chloro-(4-N,N-dimethylaminobutyryloxy-pyridine-2-ylamino-methylidene)-3-methy 1-2,2-dioxo-2λ^6'7-dithia-3-azabicyclo[4,3,0]nona-8,10-dien-5-one.HCl]	–	–	–	–	17.5	50%	37.53±0.05	36.57±0.05	36.52±0.07	36.51±0.06	–
Cc1cnc(NC(=O)C2=C(OC(=O)CCCN(C)C)c3ccccc3S(=O)(=O)N2C)s1 [H, 4-N,N-dimethylaminobutyryloxy-2-methyl-N-(5-methyl-2-thiazolyl)-2H-1,2-benzothiazine-3-carboxamide-1,1-dioxide.HCl]	~500 µg/mL	–	–	–	18.2	48%	37.57±0.07	36.53±0.08	36.52±0.08	36.50±0.07	LD50 [2, 8]: 590 mg/kg
CN1C(C(=O)Nc2ccccn2)=C(O)c2ccccc2S1(=O)=O [Piroxicam, reference compound]	~5 µg/mL	–	–	–	–	–	–	–	–	–	LD50 [2, 8]: 360 mg/kg
CN(C)CCCC(=O)O[C@H]1CC[C@H]2[C@@H]3CCC4=CC(=O)CC[C@]4(C)[C@H]3CC[C@]12C.Cl [TSBH, testosteronyl-4-dimethylaminobutyrate.HCl]	–	–	–	–	–	–	–	–	–	–	diffuses through human skin faster than does the drug itself [7]: ~ 60 times
CN1C(C(=O)Nc2nccs2)=C(O)c2ccccc2S1(=O)=O [sudoxiam, reference compound]	–	–	–	–	–	–	–	–	–	–	peak plasma levels [1]: ~0.005 mg/mL
